Reference: patent publication US11319305B2, “Pyrimidine sulfamide derivative and preparation method and medical application thereof” (SHIJIAZHUANG SAGACITY NEW DRUG DEVELOPMENT CO., LTD., priority 2017, dated 2022)

How the values were obtained:
human ETB receptor = target: T1, human ETB receptor (Homo sapiens, UniProt P24530); assay: In vitro antagonistic effect against human ETB receptor, Ca2+ signal in transfected CHO cells; assay type: cell-based; conditions: response to 0.3 nM endothelin-1
T1 construct: host or cells: CHO cells
T1 sequence (P24530 27-442): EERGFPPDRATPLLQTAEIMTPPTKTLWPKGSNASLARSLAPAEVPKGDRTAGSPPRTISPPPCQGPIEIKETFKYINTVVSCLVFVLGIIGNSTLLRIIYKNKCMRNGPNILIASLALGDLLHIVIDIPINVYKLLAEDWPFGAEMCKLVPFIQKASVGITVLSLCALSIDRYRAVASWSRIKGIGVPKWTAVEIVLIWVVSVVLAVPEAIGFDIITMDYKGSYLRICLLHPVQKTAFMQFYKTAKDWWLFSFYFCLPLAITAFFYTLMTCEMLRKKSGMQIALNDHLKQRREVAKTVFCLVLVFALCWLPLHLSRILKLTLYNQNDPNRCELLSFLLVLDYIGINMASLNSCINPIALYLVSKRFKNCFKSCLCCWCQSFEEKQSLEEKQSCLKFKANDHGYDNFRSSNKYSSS
Method: Antagonist activity of the compound against human ETB receptors expressed in transfected CHO cells was evaluated by measuring the effect of the compound on the changes in the cytoplasmic Ca^2+ ion signal induced by human ETB receptor agonists. The functional activity of the ETB receptor antagonistic effect was tested in Eurofins-Cerep SA according to current standard procedures.
1. Cells were suspended in DMEM buffer (Invitrogen) and then distributed in 384-well plate (100 μL/well) at a density of 3×10^4 cells/well;
2. Probenecid in HBSS buffer (Invitrogen) supplemented with 20 mM Hepes (Invitrogen) (pH 7.4) was mixed with fluorescent probe (Fluo4 NW, Invitrogen), the mixture was added to each wells, then balanced with cells at 37° C. for 60 minutes, and then balanced with cells at 22° C. for 15 minutes;
3. The test plate was placed in a microplate reader (CellLux, PerkinElmer), a DMSO solution or HBSS buffer with an appropriate concentration of the test compound and the positive control was added, and 0.3 nM endothelin-1 or HBSS buffer (base control) was added after 5 minutes, and then the change in fluorescence intensity proportional to the concentration of Ca^2+ ions of […] was measured;
4. Results were shown as the percent inhibition of control response to 0.3 nM endothelin-1;
5. Standard positive control was BQ-788, several concentrations were tested in each experiments. The data was analyzed using Prism to generate a concentration-response curve, and IC50 values of the compounds were calculated.

[1] = target: T2, Human Pregnane X Receptor (PXR) (Homo sapiens, UniProt O75469); assay: Human pregnane X receptor (PXR) assay, induction of PXR-mediated CYP3A expression in DPX2 cells; assay type: cell-based
T2 construct: host or cells: DPX2 cells
T2 sequence (O75469 1-434): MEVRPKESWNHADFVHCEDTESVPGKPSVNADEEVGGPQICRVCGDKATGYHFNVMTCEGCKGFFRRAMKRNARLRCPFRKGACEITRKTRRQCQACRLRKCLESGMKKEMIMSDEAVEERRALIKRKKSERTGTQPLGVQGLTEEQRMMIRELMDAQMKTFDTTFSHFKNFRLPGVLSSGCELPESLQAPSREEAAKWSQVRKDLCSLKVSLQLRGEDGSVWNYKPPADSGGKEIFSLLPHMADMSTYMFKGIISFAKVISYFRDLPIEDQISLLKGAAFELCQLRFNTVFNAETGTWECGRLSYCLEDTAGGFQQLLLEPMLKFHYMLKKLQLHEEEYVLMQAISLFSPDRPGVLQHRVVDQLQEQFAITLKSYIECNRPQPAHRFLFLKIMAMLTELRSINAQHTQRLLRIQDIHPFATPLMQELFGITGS
Method: Experimental Embodiment 3: Human Pregnane X Receptor (PXR) Assay
The effect of the compounds on the induction of PXR-mediated CYP3A expression was evaluated.
1. DPX2 cells were thawn under sterile conditions.
2. DPX2 cell solution was distributed in 96-well plate (100 μL/well), and the plate was placed in a 5% CO2/37° C. incubator overnight.
3. Quantitative feeding medium was thawn in a 37° C. water bath. Positive control rifampin was thawn at room temperature. A series of test compounds and positive control dilutions were prepared in quantitative feeding medium. The cells were carefully aspirated from each wells without disturbing the cells during aspiration and the medium was discarded. 100 μL of each test compound concentration was transferred to pre-labeled wells. The operation of the positive control group and the blank group were the same. The plate was placed back into the incubator for 24 hours exposure.
(1) 7 μL of Luciferin-IPA was added to […] feeding medium, the mixture was mixed by inverting, and poured into a Luciferin-IPA reagent tank.
(2) The 96-well plate was taken out from the incubator, and the media was carefully aspirated from each wells. 50 μL of the Luciferin-IPA reagent was added to each wells, and the cell plate was placed back into the incubator for 60 minutes.
(3) During incubation, the P450-Glo buffer was poured into the Luciferin detection reagent, and the mixture was mixed by inverting.
(4) The 96-well plate was taken out from the incubator, and 40 μL of solution from each well was transferred into the corresponding white 96-well plate, and the corresponding position of each wells was consistent with the original cell plate. […]
(8) After incubation with Luciferin detection reagent for 20 minutes, a photometer (set 1-5 seconds. Readout Time) was used to measure the luminescence of each wells of the white 96-well plate. […]
(10) After incubating for 60 minutes at 37° C., the original 96-well plate was taken out of the incubator. The reader was set to the fluorescence mode, the excitation wavelength was set to 380-400 nm, the emission wavelength was set to 505 nm, and the fluorescence intensity of each wells was measured.
(11) The cell plate was taken out of the enzyme reader, and 100 μL of ONE-Glo™ detection reagent was added to each wells. […]
(12) The enzyme reader was set to 5 seconds for pre-shaking and 5 seconds for wells reading, and the fluorescence intensity in each hole was measured. […]
The positive control was rifampicin, six concentrations were tested in each experiment. The data was analyzed using Prism to generate a concentration-response curve and the EC50 value of the compound was calculated.

IC50 (human ETB receptor) | induction effect on PXR-mediated CYP3A expression (in words) [1] | EC50 ([1]; DPX2 cells, 24 hours exposure, ± is calculation error of simulation curve, read-out: EC50, induction effect on PXR-mediated CYP3A expression) | Structure (SMILES)
85 µM | – | – | NS(=O)(=O)Nc1ncnc(OCCOc2ncc(Br)cn2)c1-c1ccc2c(c1)OCO2 [WX001]
66 µM | relatively weak induction effect | 27.6 ± 1.33 µM | COCCNS(=O)(=O)Nc1ncnc(OCCOc2ncc(Br)cn2)c1-c1ccc2c(c1)OCO2 [WX013]
